Experimental data reported in patent US20250255981A1, “IMMUNOMODULATORY ANTIBODY-DRUG CONJUGATES” (Seagen Inc., priority 2022, published 2025).
≈ marks a conversion by molar mass, not a printed value. Like-named read-outs stand apart in the source and are kept apart here.

Tested on: THP1-Dual™ cells (IRF-Lucia luciferase reporter)
Assay: THP1-Dual™ cell reporter assay
Format: cell-based, human
Settings: for EC50: small molecules, 24 h, >10,000 nM = minimal activity up to 10 μM, read-out: EC50, Lucia reporter signal; for EC50 / EC50, Lucia reporter signal: some values average of multiple experiments; for EC50, Lucia reporter signal: ADC: drug linker conjugated to targeted mAb
Procedure: Potency of compounds and ADCs was evaluated using the THP1-Dual™ cells (Invivogen PN: thpd-nfis [also referred to as THP1 dual reporter cells]), which contain an IRF-Lucia luciferase reporter. Cells were cultured in RPMI-1640 (Gibco) with 10% heat-inactivated fetal bovine serum, Pen-Strep (100 U/mL-100 […], Gibco), HEPES (10 mM, Gibco)), sodium pyruvate (1 mM, Gibco), MEM non-essential amino acids (1×, Gibco), GlutaMAX (1×, Gibco), and beta-mercaptoethanol (55 μM, Gibco). Cells were plated in a 96-well flat bottom tissue culture-treated clear polystyrene plate (Corning Costar #3596) at ˜100,000 cells per well in 200 μL with the indicated concentration of the compound or ADC. The supernatant was harvested at 24 hours (compounds) or 48 hours (ADC) post plating for the reporter assay, or as indicated. To measure Lucia reporter signal, 10 µL of the supernatant was combined with 40 µL of QUANTI-Luc™ Luminescence assay reagent (Invivogen PN: rep-qlc1) in a 96-well clear flat bottom tissue culture-treated black polystyrene plate (Corning Costar #3603) and read on a Perkin Elmer Envision plate reader.

SMILES	EC50, Lucia reporter signal (48 h)	also measured
CCn1nc(C)cc1C(=O)Nc1nc2cc(C(N)=O)cc(O)c2n1C/C=C/Cn1c(NC(=O)c2cc(C)nn2CC)nc2cc(C(N)=O)cc(OCCCNC)c21 [Compound 15b]		relative potency of free drug, Lucia reporter (free drug, 24 h (48 h elsewhere in the source)): more potent than 12a; EC50: 0.0058 µM
CCn1nc(C)cc1C(=O)Nc1nc2cc(C(N)=O)cc(OC)c2n1C/C=C/Cn1c(NC(=O)c2cc(C)nn2CC)nc2cc(C(N)=O)cc(OCCCN(C)C(=O)[C@H](CC(=O)O)NC(=O)CCN3C(=O)C=CC3=O)c21 [Compound 17, (S,E)-4-((3-((5-carbamoyl-1-(4-(5-carbamoyl-2-(1-ethyl-3-methyl-1H-pyrazole-5-carboxamido)-7-methoxy-1H-benzo[d]imidazol-1-yl)but-2-en-1-yl)-2-(1-ethyl-3-methyl1H-pyrazole-5-carboxamido)-1H-benzo[d]imidazol-7-yl)oxy)propyl)(methyl)amino)-3-(3-(2,5-dioxo-2,5-dihydro-1H-pyrrol-1-yl)propanamido)-4-oxobutanoic acid]	2.2 ng/mL (≈ 0.00208 µM)	
CCn1nc(C)cc1C(=O)Nc1nc2cc(C(N)=O)cc(OC)c2n1C/C=C/Cn1c(NC(=O)c2cc(C)nn2CC)nc2cc(C(N)=O)cc(OCCCN(C)C(=O)[C@H](CO)NC(=O)CCN3C(=O)C=CC3=O)c21 [Compound 24, (S,E)-1-(4-(5-carbamoyl-2-(1-ethyl-3-methyl-1H-pyrazole-5-carboxamido)-7-methoxy-1H-benzo[d]imidazol-1-yl)but-2-en-1-yl)-7-(3-(2-(3-(2,5-dioxo-2,5-dihydro-1H-pyrrol-1-yl)propanamido)-3-hydroxy-N-methylpropanamido)propoxy)-2-(1-ethyl-3-methyl-1H-pyrazole-5-carboxamido)-1H-benzo[d]imidazole-5-carboxamide]	2.1 ng/mL (≈ 0.00203 µM)	
CCn1nc(C)cc1C(=O)Nc1nc2cc(S(N)(=O)=O)ccc2n1C/C=C/Cn1c(NC(=O)c2cc(C)nn2CC)nc2cc(C(N)=O)cc(OCCCN(C)C(=O)CCN3C(=O)C=CC3=O)c21 [Compound 25, (E)-7-(3-(3-(2,5-dioxo-2,5-dihydro-1H-pyrrol-1-yl)-N-methylpropanamido)propoxy)-2-(1-ethyl-3-methyl-1H-pyrazole-5-carboxamido)-1-(4-(2-(1-ethyl-3-methyl-1H-pyrazole-5-carboxamido)-5-sulfamoyl-1H-benzo[d]imidazol-1-yl)but-2-en-1-yl)-1H-benzo[d]imidazole-5-carboxamide]	307 ng/mL (≈ 0.323 µM)	
CCn1nc(C)cc1C(=O)Nc1nc2cc(C(N)=O)cc(OC)c2n1C/C=C/Cn1c(NC(=O)c2cc(C)nn2CC)nc2cc(C(N)=O)cc(OCCC3CN(C(=O)CCN4C(=O)C=CC4=O)C3)c21 [Compound 26, (E)-1-(4-(5-carbamoyl-2-(1-ethyl-3-methyl-1H-pyrazole-5-carboxamido)-7-methoxy-1H-benzo[d]imidazol-1-yl)but-2-en-1-yl)-7-(2-(1-(3-(2,5-dioxo-2,5-dihydro-1H-pyrrol-1-yl)propanoyl)azetidin-3-yl)ethoxy)-2-(1-ethyl-3-methyl-1H-pyrazole-5-carboxamido)-1H-benzo[d]imidazole-5-carboxamide]	14.4 ng/mL (≈ 0.015 µM)	
CCn1nc(C)cc1C(=O)Nc1nc2cc(C(N)=O)cc(OC)c2n1C/C=C/Cn1c(NC(=O)c2cc(C)nn2CC)nc2cc(C(N)=O)cc(OCCCOC3CN(C(=O)CCN4C(=O)C=CC4=O)C3)c21 [Compound 27, (E)-1-(4-(5-carbamoyl-2-(1-ethyl-3-methyl-1H-pyrazole-5-carboxamido)-7-methoxy-1H-benzo[d]imidazol-1-yl)but-2-en-1-yl)-7-(3-((1-(3-(2,5-dioxo-2,5-dihydro-1H-pyrrol-1-yl)propanoyl)azetidin-3-yl)oxy)propoxy)-2-(1-ethyl-3-methyl-1H-pyrazole-5-carboxamido)-1H-benzo[d]imidazole-5-carboxamide]	10.4 ng/mL (≈ 0.0105 µM)	
COc1cc(C(N)=O)cc2nc(NC(=O)c3ccnnc3)n(C/C=C/Cn3c(NC(=O)c4cccnn4)nc4cc(C(N)=O)cc(O)c43)c12 [Compound 42]		EC50 (Homo sapiens, THP1-Dual): > 10 µM
CCn1nc(C)cc1C(=O)Nc1nc2cc(C(N)=O)cc(OC)c2n1C/C=C/Cn1c(NC(=O)c2cc(C)nn2CC)nc2cc(C(N)=O)cc(OCCCN(C)C(=O)CCN3C(=O)C=CC3=O)c21 [compound 12, (E)-1-(4-(5-carbamoyl-2-(1-ethyl-3-methyl-1H-pyrazole-5-carboxamido)-7-methoxy-1H-benzo[d]imidazol-1-yl)but-2-en-1-yl)-7-(3-(3-(2,5-dioxo-2,5-dihydro-1H-pyrrol-1-yl)-N-methylpropanamido)propoxy)-2-(1-ethyl-3-methyl-1H-pyrazole-5-carboxamido)-1H-benzo[d]imidazole-5-carboxamide]		EC50 (Homo sapiens, THP1-Dual): 0.037 µM
CCn1nc(C)cc1C(=O)Nc1nc2cc(C(N)=O)cc(OC)c2n1C/C=C/Cn1c(NC(=O)c2cc(C)nn2CC)nc2cc(C(N)=O)cc(OCCCN(C)C(=O)OCc3ccc(O[C@@H]4O[C@H](C(=O)O)[C@@H](O)[C@H](O)[C@H]4O)cc3NC(=O)CCNC(=O)CCN3C(=O)C=CC3=O)c21 [compound 13]		relative potency / activity of ADC, Lucia reporter (drug linker conjugated to targeted mAb, 48 h): more potent when conjugated to a targeted mAb via a cleavable glucuronide linker (13) than the similar compound 1 conjugate (11)
CCn1nc(C)cc1C(=O)Nc1nc2cc(C(=O)OC)cc(OC)c2n1C/C=C/Cn1c(NC(=O)c2cc(C)nn2CC)nc2cc(C(=O)OC)cc(OCCCN(C)C(=O)CCN3C(=O)C=CC3=O)c21 [compound 66, methyl (E)-7-(3-(3-(2,5-dioxo-2,5-dihydro-1H-pyrrol-1-yl)-N-methylpropanamido)propoxy)-2-(1-ethyl-3-methyl-1H-pyrazole-5-carboxamido)-1-(4-(2-(1-ethyl-3-methyl-1H-pyrazole-5-carboxamido)-7-methoxy-5-(methoxycarbonyl)-1H-benzo[d]imidazol-1-yl)but-2-en-1-yl)-1H-benzo[d]imidazole-5-carboxylate]	>10,000 ng/mL	
CCn1nc(C)cc1C(=O)Nc1nc2cc(C(=O)OC)cc(OC)c2n1C/C=C/Cn1c(NC(=O)c2cc(C)nn2CC)nc2cc(C(=O)OC)cc(OCCCN(C)C(=O)OCc3ccc(O[C@@H]4O[C@H](C(=O)O)[C@@H](O)[C@H](O)[C@H]4O)cc3NC(=O)CCNC(=O)CCN3C(=O)C=CC3=O)c21 [compound 67]	>10,000 ng/mL	
CCn1nc(C)cc1C(=O)Nc1nc2cc(C(=O)O)cc(OC)c2n1C/C=C/Cn1c(NC(=O)c2cc(C)nn2CC)nc2cc(C(=O)O)cc(OCCCN(C)C(=O)CCN3C(=O)C=CC3=O)c21 [compound 68, (E)-1-(4-(5-carboxy-2-(1-ethyl-3-methyl-1H-pyrazole-5-carboxamido)-7-methoxy-1H-benzo[d]imidazol-1-yl)but-2-en-1-yl)-7-(3-(3-(2,5-dioxo-2,5-dihydro-1H-pyrrol-1-yl)-N-methylpropanamido)propoxy)-2-(1-ethyl-3-methyl-1H-pyrazole-5-carboxamido)-1H-benzo[d]imidazole-5-carboxylic acid]	>10,000 ng/mL	
CCn1nc(C)cc1C(=O)Nc1nc2cc(C(=O)O)cc(OC)c2n1C/C=C/Cn1c(NC(=O)c2cc(C)nn2CC)nc2cc(C(=O)O)cc(OCCCN(C)C(=O)OCc3ccc(O[C@@H]4O[C@H](C(=O)O)[C@@H](O)[C@H](O)[C@H]4O)cc3NC(=O)CCNC(=O)CCN3C(=O)C=CC3=O)c21 [compound 69]	>10,000 ng/mL	
CCn1nc(C)cc1C(=O)Nc1nc2cc(C(N)=O)cc(OC)c2n1C/C=C/Cn1c(NC(=O)c2cc(C)nn2CC)nc2cc(C(N)=O)cc(OCCCN(C)C(=O)[C@H](CC(=O)OC)NC(=O)CCN3C(=O)CC(SC[C@H](N)C(=O)O)C3=O)c21 (stereo partly drawn) [compound 72]		EC50 (Homo sapiens, THP1-Dual): 0.275 µM
